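Following 48 hours of exposure in 96-well plates, responses at five concentrations were used to interpolate endpoints linearly. GI50 is the concentration that inhibits growth by half.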 Calls of active or inactive are those of the source. No stated cut-off is given here; in the data, active = GI50 up to about 1.1 µM and inactive = higher.
Key:
Assay in all cases: inhibition of tumour cell growth, NCI panel, 48 h
HT-29 = system: HT-29
M14 = system: M14
HL-60 = system: HL-60
IGROV-1 = system: IGROV-1
RXF 393 = system: RXF 393
OVCAR-3 = system: OVCAR-3
CAKI-1 = system: CAKI-1
K562 = system: K562
COLO 205 = system: COLO 205
A498 = system: A498
OVCAR-8 = system: OVCAR-8
NCI-H23 = system: NCI-H23
ACHN = system: ACHN
NCI-H226 = system: NCI-H226
CCRF-CEM = system: CCRF-CEM
SK-MEL-5 = system: SK-MEL-5
OVCAR-4 = system: OVCAR-4
NCI-H460 = system: NCI-H460
DU-145 = system: DU-145
SNB-19 = system: SNB-19

| SMILES | GI50 (HT-29) | GI50 (M14) | GI50 (HL-60) | GI50 (IGROV-1) | GI50 (RXF 393) | GI50 (OVCAR-3) | GI50 (CAKI-1) | GI50 (K562) | GI50 (COLO 205) | GI50 (A498) | GI50 (OVCAR-8) | GI50 (NCI-H23) | GI50 (ACHN) | GI50 (NCI-H226) | GI50 (CCRF-CEM) | GI50 (SK-MEL-5) | GI50 (OVCAR-4) | GI50 (NCI-H460) | GI50 (DU-145) | GI50 (SNB-19) |
| --- | --- | --- | --- | --- | --- | --- | --- | --- | --- | --- | --- | --- | --- | --- | --- | --- | --- | --- | --- | --- |
| COn1oc(=O)c2ccccc21 | > 100 µM (inactive) | > 100 µM (inactive) | > 100 µM (inactive) | > 100 µM (inactive) | > 100 µM (inactive) | > 100 µM (inactive) | > 100 µM (inactive) | > 100 µM (inactive) | > 100 µM (inactive) | > 100 µM (inactive) | > 100 µM (inactive) | > 100 µM (inactive) | > 100 µM (inactive) | > 100 µM (inactive) | > 100 µM (inactive) | > 100 µM (inactive) | > 100 µM (inactive) | > 100 µM (inactive) | > 100 µM (inactive) | > 100 µM (inactive) |
| O=C1Nc2ccc(Br)cc2/C1=N/c1ccc(Cl)cc1 | 12.1 µM (inactive) | 20.7 µM (inactive) | 5.48 µM (inactive) | – | 18.5 µM (inactive) | 15.8 µM (inactive) | 7.1 µM (inactive) | 0.586 µM (active) | 1.78 µM (inactive) | > 100 µM (inactive) | 11.7 µM (inactive) | 30.2 µM (inactive) | 13.4 µM (inactive) | 23.4 µM (inactive) | 11.6 µM (inactive) | 4.15 µM (inactive) | – | 14.4 µM (inactive) | 47.2 µM (inactive) | 28 µM (inactive) |
| COC(C[C@H]1CCCC[C@]1(O)/C(=C\CO[Si](C(C)C)(C(C)C)C(C)C)Sc1ccccc1)OC | 46.1 µM (inactive) | 31.6 µM (inactive) | 38.2 µM (inactive) | 52.7 µM (inactive) | 16.1 µM (inactive) | – | 32.4 µM (inactive) | 31.3 µM (inactive) | 20.9 µM (inactive) | > 100 µM (inactive) | 49.8 µM (inactive) | 25.8 µM (inactive) | > 100 µM (inactive) | 23.2 µM (inactive) | 27 µM (inactive) | 30.3 µM (inactive) | 39.2 µM (inactive) | 60 µM (inactive) | 40.1 µM (inactive) | 26.7 µM (inactive) |
| COc1cc2c(cc1OCCCC(=O)Nc1cc(C(=O)Nc3cc(C(=O)Nc4cc(C(=O)NCCCN(C)C)n(C)n4)n(C)n3)n(C)n1)N=CC1CCCN1C2=O (stereo unspecified) | 20 µM (inactive) | 28 µM (inactive) | 6.14 µM (inactive) | 2.96 µM (inactive) | 22.4 µM (inactive) | 29.9 µM (inactive) | 18.2 µM (inactive) | 4.43 µM (inactive) | 3.53 µM (inactive) | 23 µM (inactive) | 32 µM (inactive) | 26.5 µM (inactive) | 13.2 µM (inactive) | 28.4 µM (inactive) | 2.72 µM (inactive) | 19.5 µM (inactive) | 16.1 µM (inactive) | 41.4 µM (inactive) | 35.4 µM (inactive) | 18.3 µM (inactive) |
| Cc1[nH]c(-c2ccccc2)c(O)c1C(=O)OC1CC(C)CCC1C(C)C (stereo unspecified) | 14.4 µM (inactive) | 15.6 µM (inactive) | 16.4 µM (inactive) | 15.6 µM (inactive) | 11.7 µM (inactive) | 12.7 µM (inactive) | 17.7 µM (inactive) | 50 µM (inactive) | 14.8 µM (inactive) | 18.6 µM (inactive) | 16 µM (inactive) | 13.4 µM (inactive) | 16.4 µM (inactive) | 16.9 µM (inactive) | 11 µM (inactive) | 16.6 µM (inactive) | 13.4 µM (inactive) | 15.3 µM (inactive) | 15.8 µM (inactive) | 17.3 µM (inactive) |
| CON(C)c1nc(N)c(C#N)c(C#N)c1C#N | > 10 µM (inactive) | > 10 µM (inactive) | 4.16 µM (inactive) | > 10 µM (inactive) | > 10 µM (inactive) | 2.28 µM (inactive) | > 10 µM (inactive) | – | > 10 µM (inactive) | > 10 µM (inactive) | > 10 µM (inactive) | > 10 µM (inactive) | > 10 µM (inactive) | > 10 µM (inactive) | 4.02 µM (inactive) | > 10 µM (inactive) | > 10 µM (inactive) | > 10 µM (inactive) | > 10 µM (inactive) | > 10 µM (inactive) |

— ChEMBL document CHEMBL1201862, “PubChem BioAssay data set” (2004)
